# The source made the active and inactive calls.
# How the values were obtained:
# [1] = molecular target: Cysteine protease ATG4B (Homo sapiens, UniProt Q9Y4P1); assay type: functional;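 also: Fluorescence-based dose-response confirmation assay measuring inhibition of ATG4B activity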
# [2] = molecular target: Phospholipase A2 (Homo sapiens, UniProt P04054); assay type: functional;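 also: confirmatory dose-response counterscreen on phospholipase A2, testing hits that came from an ultra-high-throughput screen for ATG4B inhibitors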
# [3] = molecular target: T1, RNA-binding protein pos-1 (Caenorhabditis elegans, UniProt G5EF15); test: inhibitors of POS-1/mex-3 RNA binding, dose response, biochemical, fluorescence polarization (AID 1964);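 also: purified POS-1 fused to maltose binding protein made in E. coli; potency of compounds blocking POS-1 binding to fluorescent RNA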
# T1 sequence (G5EF15 whole entry): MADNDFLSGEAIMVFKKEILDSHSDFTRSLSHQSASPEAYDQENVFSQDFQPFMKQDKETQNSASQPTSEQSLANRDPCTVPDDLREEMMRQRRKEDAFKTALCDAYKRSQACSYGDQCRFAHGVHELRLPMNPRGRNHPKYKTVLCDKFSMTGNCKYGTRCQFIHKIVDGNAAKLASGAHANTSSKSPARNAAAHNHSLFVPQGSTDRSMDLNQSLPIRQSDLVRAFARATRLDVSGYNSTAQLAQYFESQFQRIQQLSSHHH
# [4] = molecular target: Keap1/Nrf2 (Homo sapiens, UniProt Q14145); test: Keap1-Nrf2 protein-protein interaction inhibitors, dose response, biochemical, fluorescence polarization, cherry-picked samples (AID 588683)
# [5] = molecular target: T2, Zinc finger protein mex-5 (Caenorhabditis elegans, UniProt Q9XUB2); test: MEX-5/TCR-2 RNA interaction inhibitors, dose response, biochemical, C. elegans, fluorescence polarization (AID 1960)
# T2 sequence (Q9XUB2 whole entry): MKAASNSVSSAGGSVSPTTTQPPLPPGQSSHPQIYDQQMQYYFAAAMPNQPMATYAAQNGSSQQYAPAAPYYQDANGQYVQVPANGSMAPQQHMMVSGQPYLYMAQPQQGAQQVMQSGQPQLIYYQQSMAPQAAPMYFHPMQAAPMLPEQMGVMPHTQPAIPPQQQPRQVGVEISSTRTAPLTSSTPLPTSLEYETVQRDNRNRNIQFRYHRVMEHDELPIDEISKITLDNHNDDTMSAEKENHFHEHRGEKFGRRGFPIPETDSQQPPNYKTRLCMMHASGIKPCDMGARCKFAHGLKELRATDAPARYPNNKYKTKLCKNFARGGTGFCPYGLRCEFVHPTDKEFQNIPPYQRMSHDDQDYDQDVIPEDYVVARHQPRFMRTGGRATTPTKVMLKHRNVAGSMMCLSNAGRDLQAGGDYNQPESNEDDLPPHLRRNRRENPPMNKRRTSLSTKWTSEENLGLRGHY
# [6] = molecular target: T3, Carboxy-terminal domain RNA polymerase II polypeptide A small phosphatase 1 (Homo sapiens, UniProt Q9GZU7); test: inhibitors of CTDSP1, concentration-response testing, biochemical assay, absorbance-based, actives from ultra-high-throughput screening (AID 540297); assay type: functional
# T3 sequence (Q9GZU7 whole entry): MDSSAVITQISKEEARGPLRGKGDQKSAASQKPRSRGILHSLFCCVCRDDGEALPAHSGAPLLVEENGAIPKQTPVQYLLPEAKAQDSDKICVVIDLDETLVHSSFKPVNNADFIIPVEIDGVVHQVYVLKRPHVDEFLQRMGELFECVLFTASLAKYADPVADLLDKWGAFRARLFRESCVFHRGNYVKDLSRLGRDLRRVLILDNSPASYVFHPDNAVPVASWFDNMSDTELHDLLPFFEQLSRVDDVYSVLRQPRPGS
# [7] = molecular target: DNA (cytosine-5)-methyltransferase 1 (Homo sapiens, UniProt P26358); test: DNMT1 methyltransferase inhibitors, confirmation, biochemical, fluorescent molecular beacon (AID 602386); assay type: functional
# [8] = molecular target: DNA topoisomerase (Yersinia pestis, UniProt A0A2S9PM60); test: Y. pestis Topo-I inhibitors, cleavage product readout, dose response, biochemical, cherry-pick (AID 588525)
# [9] = molecular target: Cytochrome P450 3A4 (Homo sapiens, UniProt P08684);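 also: CYP3A4 tested as one member of a cytochrome P450 panel screen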
# [10] = molecular target: Cytochrome P450 2C19 (Homo sapiens, UniProt P33261); test: Cytochrome panel assay with activity outcomes. Panel member name: p450-cyp2c19 Compounds with AC50 equal or less than 10 uM are considered active; assay type: functional; conditions: read-out: AC50
# [11] = molecular target: Low molecular weight phosphotyrosine protein phosphatase (Homo sapiens, UniProt P24666); assay type: functional; conditions: read-out: IC50_Mean;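 also: Dose-response confirmation assay measuring inhibition of LMPTP enzyme activity by fluorescence intensity read-out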
# [12] = molecular target: T4, Microphthalmia-associated transcription factor (Homo sapiens, UniProt O75030); test: TRPM1 promoter luciferase signal decrease, dose response, MITF inhibitor project, cell-based, SK-MEL-5, cherry-picked, set 3 (AID 493073); assay type: functional
# T4 sequence (O75030 whole entry): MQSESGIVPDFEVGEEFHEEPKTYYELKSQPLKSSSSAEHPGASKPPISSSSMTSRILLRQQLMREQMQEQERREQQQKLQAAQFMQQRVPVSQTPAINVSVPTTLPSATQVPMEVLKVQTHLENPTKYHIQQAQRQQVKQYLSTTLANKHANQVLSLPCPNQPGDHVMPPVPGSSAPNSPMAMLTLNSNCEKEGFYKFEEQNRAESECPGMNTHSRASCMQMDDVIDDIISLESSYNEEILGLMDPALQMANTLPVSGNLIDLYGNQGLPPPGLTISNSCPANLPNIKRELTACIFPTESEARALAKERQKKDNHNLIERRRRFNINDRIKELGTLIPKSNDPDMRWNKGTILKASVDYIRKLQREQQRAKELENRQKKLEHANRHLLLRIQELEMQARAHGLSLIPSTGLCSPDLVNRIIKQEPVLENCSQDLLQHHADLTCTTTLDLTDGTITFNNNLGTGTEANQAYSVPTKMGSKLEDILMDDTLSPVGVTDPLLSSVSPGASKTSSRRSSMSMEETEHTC
# [13] = molecular target: T5, Heat shock factor protein 1 (Mus musculus, UniProt P38532); test: inhibition of MG132-induced HSE-luciferase signal, confirmation, cell-based, NIH3T3, luminescence, dose retest (AID 2382); assay type: functional;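 also: NIH3T3 fibroblasts with HSF1-driven luciferase reporter stressed by proteasome inhibitor MG132; luminescence from HSF1-driven luciferase expression after 8 hours of MG132 stress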
# T5 sequence (P38532 whole entry): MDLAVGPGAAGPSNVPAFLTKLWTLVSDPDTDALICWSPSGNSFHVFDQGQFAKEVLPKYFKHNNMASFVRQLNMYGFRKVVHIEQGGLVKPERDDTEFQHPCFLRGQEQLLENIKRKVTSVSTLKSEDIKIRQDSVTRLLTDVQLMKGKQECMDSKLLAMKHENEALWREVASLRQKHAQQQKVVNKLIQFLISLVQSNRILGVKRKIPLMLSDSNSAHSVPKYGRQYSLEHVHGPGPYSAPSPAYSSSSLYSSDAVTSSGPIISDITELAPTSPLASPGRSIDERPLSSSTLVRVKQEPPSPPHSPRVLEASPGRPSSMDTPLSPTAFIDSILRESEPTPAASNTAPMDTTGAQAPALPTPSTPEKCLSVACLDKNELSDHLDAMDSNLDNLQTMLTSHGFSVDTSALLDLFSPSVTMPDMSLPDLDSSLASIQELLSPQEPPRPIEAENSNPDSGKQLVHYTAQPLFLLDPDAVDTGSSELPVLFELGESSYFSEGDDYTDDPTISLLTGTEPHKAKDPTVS
# [14] = test system: A-375; test: A375 melanoma cell viability reduction, dose response, counter-screen for MITF modulator project, cherry-pick samples, set 2 (AID 540335); assay type: functional, cell-based; conditions: Homo sapiens
# [15] = Luminescence Cell-Based Dose Retest to Confirm Inhibitors of Cancer Stem Cells. [Related pubchem assays (depositor defined):AID2717, AID2721]; assay type: functional; conditions: Homo sapiens
# [16] = test system: A-375; test: MITF: Counter assay: A375 proliferation Measured in Cell-Based System Using Plate Reader - 2084-03_Inhibitor_Dose_DryPowder_Activity. [Related pubchem assays (depositor defined):AID488944]; assay type: functional; conditions: Homo sapiens
# [17] = HepG2 cell cytotoxicity, dose response, cytotoxicity control for Shn3 inhibitor project, CellTiter-Glo, cherry-picked (AID 624134); assay type: functional, cell-based
# [18] = molecular target: Protein Wnt-3a (Mus musculus, UniProt P27467); test: Wnt3a-driven reporter signaling inhibition, dose response, selectivity assay for Gli-SUFU antagonist project, Wnt-LIGHT cells, luminescence (AID 651570); assay type: functional; conditions: read-out: IC50_Mean;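 also: Wnt-LIGHT reporter cells stimulated with conditioned medium from Wnt3a-producing cells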
# [19] = Shn3 3'UTR reporter inhibitors, dose response, cell-based, Clone20 osteoblasts, firefly luciferase, cherry-picked (AID 624132); assay type: functional;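 also: firefly luciferase luminescence from reporter carrying the Shn3 3'UTR in osteoblasts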
# [20] = control 3'UTR Renilla luciferase suppression, dose response, counter-screen for Shn3 inhibitor project, cell-based, Clone20-Shn3RL, cherry-picked (AID 624133); assay type: functional
# [21] = test system: HEK293; test: cytotoxicity in HEK293T NF-kB-Luc cells, SAR follow-up, cytotoxicity control for NF-kB activator project, cell-based, resazurin fluorescence (AID 493251); assay type: functional; conditions: Homo sapiens
# [22] = test system: HEK293; test: SAR Analysis of small molecule inhibitors of B-cell specific antigen receptor-induced NF-kB activation in a HEK-293T cell line using a luminescence assay - Set 2. [Related pubchem assays (depositor defined):AID435022, AID435025, AID489021]; assay type: functional, cell-based; conditions: Homo sapiens
# [23] = test system: Jurkat; test: SAR Analysis of small molecule inhibitors of […] specific antigen receptor-induced NF-kB activation in a Jurkat cell line using a luminescence assay - Set 3. [Related pubchem assays (depositor defined):AID435022, AID435025, AID465]; assay type: functional, cell-based; conditions: Homo sapiens
# [24] = molecular target: T6, Dual specificity protein phosphatase 3 (Homo sapiens, UniProt P51452); test: SAR VHR1 Fluorescent Assay for In Vitro dose response studies Set 3. [Related pubchem assays (depositor defined):AID1654, AID1661, AID1878]; assay type: functional
# [25] = molecular target: T6, Dual specificity protein phosphatase 3; test: VHR phosphatase inhibition, dose response, selectivity assay for STEP inhibitor project, biochemical (AID 602374); assay type: functional; conditions: read-out: IC50_Mean
# [26] = molecular target: Tyrosine-protein phosphatase non-receptor type 5 (Homo sapiens, UniProt P54829); test: STEP phosphatase inhibitors, confirmation, biochemical, fluorescence intensity, uHTS hits (AID 602372); assay type: functional; conditions: read-out: IC50_Mean
# [27] = molecular target: Tyrosine-protein phosphatase non-receptor type 11 (Homo sapiens, UniProt Q06124); test: SHP2 phosphatase inhibition, dose response, selectivity assay for STEP inhibitor project, biochemical (AID 602367); assay type: functional; conditions: read-out: IC50_Mean
# [28] = molecular target: Serine/threonine-protein kinase pim-1 (Homo sapiens, UniProt P11309); assay type: functional
# [29] = molecular target: cAMP-dependent protein kinase catalytic subunit alpha (Homo sapiens, UniProt P17612); assay type: functional
# [30] = molecular target: Interleukin-1 receptor-associated kinase 4 (Homo sapiens, UniProt Q9NWZ3); assay type: functional
# [31] = molecular target: Dual specificity protein kinase CLK4 (Homo sapiens, UniProt Q9HAZ1); assay type: functional
# [32] = molecular target: Cell division cycle 7-related protein kinase (Homo sapiens, UniProt O00311); assay type: functional;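 also: value obtained from a kinome-wide kinase panel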
# [33] = molecular target: Homeodomain-interacting protein kinase 2 (Homo sapiens, UniProt Q9H2X6); assay type: functional;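 also: measured within a kinome-wide kinase profiling panel, HIPK2 being one panel member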
# [34] = molecular target: Glycogen synthase kinase-3 beta (Homo sapiens, UniProt P49841); assay type: functional;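 also: value comes from a broad kinome profiling panel, with GSK3B as the panel member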
# T6 sequence (P51452 whole entry): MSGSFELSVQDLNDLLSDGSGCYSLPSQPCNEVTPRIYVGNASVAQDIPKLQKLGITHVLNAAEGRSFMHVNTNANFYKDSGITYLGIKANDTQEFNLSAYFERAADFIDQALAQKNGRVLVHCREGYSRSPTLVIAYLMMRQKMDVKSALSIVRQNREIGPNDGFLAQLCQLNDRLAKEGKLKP
# Cysteine protease ATG4B, sequence (Q9Y4P1 whole entry): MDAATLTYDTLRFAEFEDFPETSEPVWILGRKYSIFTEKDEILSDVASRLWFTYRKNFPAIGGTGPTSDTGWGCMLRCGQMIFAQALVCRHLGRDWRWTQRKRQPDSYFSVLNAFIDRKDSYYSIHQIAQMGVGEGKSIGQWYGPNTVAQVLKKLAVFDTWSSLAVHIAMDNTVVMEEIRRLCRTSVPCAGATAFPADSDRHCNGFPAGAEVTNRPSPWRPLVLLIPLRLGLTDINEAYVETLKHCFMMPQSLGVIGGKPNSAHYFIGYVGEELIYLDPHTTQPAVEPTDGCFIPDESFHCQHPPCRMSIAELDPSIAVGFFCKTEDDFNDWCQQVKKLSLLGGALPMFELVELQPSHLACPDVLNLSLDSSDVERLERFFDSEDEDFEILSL
# Phospholipase A2, sequence (P04054 whole entry, the tested form may be a part): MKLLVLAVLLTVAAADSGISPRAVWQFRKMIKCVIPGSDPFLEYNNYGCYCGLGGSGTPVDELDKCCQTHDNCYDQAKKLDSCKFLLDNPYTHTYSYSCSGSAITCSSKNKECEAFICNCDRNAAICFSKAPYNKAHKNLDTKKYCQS
# Tyrosine-protein phosphatase non-receptor type 11, sequence (Q06124 whole entry): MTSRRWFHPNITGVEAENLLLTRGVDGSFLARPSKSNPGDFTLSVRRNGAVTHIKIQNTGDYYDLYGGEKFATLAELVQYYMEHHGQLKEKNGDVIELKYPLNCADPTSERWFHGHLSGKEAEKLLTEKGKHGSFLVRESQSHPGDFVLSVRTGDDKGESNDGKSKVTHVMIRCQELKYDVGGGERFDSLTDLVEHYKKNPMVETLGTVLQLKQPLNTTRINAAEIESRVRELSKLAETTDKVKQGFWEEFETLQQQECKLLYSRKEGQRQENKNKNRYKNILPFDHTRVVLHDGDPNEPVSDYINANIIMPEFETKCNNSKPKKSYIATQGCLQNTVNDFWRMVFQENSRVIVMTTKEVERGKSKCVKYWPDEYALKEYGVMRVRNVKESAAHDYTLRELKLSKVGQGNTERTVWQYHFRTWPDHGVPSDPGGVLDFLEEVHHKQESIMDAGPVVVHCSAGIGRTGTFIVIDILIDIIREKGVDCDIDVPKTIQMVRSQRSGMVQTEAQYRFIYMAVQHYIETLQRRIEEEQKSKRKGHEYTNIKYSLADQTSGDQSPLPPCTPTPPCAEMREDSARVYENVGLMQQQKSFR
# Serine/threonine-protein kinase pim-1, sequence (P11309 whole entry): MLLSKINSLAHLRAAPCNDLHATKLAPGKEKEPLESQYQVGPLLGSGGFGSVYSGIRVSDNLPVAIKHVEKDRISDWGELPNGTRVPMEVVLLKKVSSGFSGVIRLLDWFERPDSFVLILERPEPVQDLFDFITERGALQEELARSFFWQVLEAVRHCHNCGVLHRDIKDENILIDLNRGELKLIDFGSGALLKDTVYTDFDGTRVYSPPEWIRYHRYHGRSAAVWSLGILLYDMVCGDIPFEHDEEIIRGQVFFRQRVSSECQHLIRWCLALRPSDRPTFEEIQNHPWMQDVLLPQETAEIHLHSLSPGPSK
# Protein Wnt-3a, sequence (P27467 whole entry): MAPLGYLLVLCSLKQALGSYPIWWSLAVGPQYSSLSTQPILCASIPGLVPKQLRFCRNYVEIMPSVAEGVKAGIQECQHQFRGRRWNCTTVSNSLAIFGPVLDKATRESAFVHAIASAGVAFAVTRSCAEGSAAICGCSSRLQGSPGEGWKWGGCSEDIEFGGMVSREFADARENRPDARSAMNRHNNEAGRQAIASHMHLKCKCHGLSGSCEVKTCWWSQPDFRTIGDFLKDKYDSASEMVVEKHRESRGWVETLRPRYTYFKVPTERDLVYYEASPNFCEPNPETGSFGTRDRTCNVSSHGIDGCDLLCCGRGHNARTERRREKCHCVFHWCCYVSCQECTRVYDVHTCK
# DNA (cytosine-5)-methyltransferase 1, sequence (P26358 whole entry): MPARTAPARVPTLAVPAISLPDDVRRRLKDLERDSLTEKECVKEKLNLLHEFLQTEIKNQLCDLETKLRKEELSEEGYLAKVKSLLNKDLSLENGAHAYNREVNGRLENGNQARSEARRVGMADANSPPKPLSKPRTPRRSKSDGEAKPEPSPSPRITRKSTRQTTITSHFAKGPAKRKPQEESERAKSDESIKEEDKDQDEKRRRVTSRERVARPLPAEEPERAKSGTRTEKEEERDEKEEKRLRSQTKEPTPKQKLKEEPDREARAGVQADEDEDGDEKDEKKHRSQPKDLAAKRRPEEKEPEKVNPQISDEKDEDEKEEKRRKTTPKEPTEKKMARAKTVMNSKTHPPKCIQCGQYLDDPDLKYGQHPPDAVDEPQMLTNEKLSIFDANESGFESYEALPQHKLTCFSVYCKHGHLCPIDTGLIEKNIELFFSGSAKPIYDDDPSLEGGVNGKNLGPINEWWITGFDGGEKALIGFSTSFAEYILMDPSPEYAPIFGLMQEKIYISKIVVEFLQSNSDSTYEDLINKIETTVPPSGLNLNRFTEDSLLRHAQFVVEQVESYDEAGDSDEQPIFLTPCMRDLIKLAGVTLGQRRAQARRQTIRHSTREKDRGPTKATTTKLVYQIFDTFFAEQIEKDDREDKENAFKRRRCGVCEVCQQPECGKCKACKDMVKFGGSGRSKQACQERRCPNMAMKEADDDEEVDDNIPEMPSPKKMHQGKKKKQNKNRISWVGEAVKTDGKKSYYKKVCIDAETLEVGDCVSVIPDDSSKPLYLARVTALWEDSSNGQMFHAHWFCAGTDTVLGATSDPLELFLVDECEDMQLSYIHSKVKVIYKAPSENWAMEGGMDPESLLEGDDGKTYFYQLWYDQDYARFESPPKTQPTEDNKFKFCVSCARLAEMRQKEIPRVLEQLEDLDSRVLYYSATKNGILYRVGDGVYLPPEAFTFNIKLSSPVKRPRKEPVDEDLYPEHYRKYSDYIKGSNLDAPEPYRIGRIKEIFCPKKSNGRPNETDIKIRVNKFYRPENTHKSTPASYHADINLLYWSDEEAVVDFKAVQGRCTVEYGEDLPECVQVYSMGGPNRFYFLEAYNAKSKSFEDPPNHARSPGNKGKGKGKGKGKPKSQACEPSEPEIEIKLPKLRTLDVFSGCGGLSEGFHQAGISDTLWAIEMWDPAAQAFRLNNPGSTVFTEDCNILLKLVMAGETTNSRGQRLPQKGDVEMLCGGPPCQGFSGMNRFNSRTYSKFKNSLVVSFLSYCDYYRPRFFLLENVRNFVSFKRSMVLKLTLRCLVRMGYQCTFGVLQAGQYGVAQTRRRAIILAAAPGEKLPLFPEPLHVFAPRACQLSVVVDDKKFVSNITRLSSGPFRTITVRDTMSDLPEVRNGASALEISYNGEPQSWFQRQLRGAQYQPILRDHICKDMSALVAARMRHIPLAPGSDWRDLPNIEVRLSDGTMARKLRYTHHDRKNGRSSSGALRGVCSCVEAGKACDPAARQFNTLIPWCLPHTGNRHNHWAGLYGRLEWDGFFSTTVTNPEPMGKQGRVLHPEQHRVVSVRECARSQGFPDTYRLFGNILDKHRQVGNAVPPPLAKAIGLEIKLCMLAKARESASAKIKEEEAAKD
# Cytochrome P450 2C19, sequence (P33261 whole entry): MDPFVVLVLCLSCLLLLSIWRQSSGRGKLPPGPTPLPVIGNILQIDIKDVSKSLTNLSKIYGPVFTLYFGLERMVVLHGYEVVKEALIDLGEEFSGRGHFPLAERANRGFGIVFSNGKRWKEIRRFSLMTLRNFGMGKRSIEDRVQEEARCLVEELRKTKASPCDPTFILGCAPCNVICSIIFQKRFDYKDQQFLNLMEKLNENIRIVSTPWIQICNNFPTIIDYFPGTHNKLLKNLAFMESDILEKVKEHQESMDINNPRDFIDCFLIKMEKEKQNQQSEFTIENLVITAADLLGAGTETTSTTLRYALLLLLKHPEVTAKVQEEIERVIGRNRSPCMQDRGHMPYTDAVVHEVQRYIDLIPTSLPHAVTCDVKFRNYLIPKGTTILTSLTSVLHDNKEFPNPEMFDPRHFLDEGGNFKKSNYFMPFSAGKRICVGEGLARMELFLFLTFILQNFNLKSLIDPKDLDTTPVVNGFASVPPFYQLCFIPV
# DNA topoisomerase, sequence (A0A2S9PM60 whole entry): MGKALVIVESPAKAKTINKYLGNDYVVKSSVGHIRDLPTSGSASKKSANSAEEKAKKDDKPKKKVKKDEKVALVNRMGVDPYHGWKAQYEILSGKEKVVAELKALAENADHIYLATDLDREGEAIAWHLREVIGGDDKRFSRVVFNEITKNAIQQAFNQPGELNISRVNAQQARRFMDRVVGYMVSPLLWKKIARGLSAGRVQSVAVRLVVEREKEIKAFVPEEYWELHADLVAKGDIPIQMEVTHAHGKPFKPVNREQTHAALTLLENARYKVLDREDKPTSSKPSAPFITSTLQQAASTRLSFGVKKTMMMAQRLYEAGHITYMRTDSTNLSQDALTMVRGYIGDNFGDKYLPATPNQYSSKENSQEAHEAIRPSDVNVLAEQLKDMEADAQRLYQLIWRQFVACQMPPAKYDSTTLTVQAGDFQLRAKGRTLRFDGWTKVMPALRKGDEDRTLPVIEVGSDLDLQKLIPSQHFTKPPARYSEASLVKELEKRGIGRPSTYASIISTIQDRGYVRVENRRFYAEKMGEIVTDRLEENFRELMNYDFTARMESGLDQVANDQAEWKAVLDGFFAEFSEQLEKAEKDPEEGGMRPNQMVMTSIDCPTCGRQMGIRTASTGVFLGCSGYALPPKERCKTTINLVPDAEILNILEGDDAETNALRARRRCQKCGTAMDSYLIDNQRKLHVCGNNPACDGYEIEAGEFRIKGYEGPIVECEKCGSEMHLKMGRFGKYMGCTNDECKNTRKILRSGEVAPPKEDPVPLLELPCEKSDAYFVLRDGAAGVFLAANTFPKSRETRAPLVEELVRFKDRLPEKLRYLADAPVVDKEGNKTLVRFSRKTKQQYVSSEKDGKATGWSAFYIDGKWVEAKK
structure (smiles),measurement,setting,value
COc1ccc(OC)c(-c2cc(C(=O)N3CCCc4ccccc43)no2)c1,IC50,[1],20.1 µM (inactive)
same,IC50,[2],14.8 µM (active)
CCOc1cc(C2C(C#N)=C(N)OC(C)=C2C(C)=O)cc(Br)c1O (configuration not stated),EC50,[3],12.3 µM (inconclusive)
same,AC50,[4],> 52 µM (inactive)
same,EC50,[5],12.3 µM (active)
Cc1ccc(C(=O)NN2CC(=O)C(c3nc(-c4cccc([N+](=O)[O-])c4)cs3)=C2N)cc1,IC50,[6],4.06 µM (active)
same,IC50,[7],> 99 µM (inactive)
Oc1nnc(Cc2ccc(-c3ccc(Cl)cc3)o2)c2ccccc12,AC50,[8],9.08 µM (active)
COc1ccc(-c2cc(C(=O)Nc3cnn(Cc4ccccc4C)c3)no2)cc1OC,AC50,[9],inconclusive
same,AC50,[10],25.1 µM (inconclusive)
O=C(COc1ccc2c(-c3ccccc3)cc(=O)oc2c1)Nc1ccc(CCO)cc1,IC50,[11],40.7 µM (inactive)
C=CCNC1=NN=C(c2ccc3c(c2)OCCO3)CS1,AC50,[12],3.37 µM (active)
same,EC50,[13],5.84 µM (active)
same,AC50,[14],48.9 µM (active)
S=C(NCc1ccccc1)Nc1cccc(Cl)c1,IC50,[1],13.3 µM (active)
same,IC50,[2],8.8 µM (active)
O=[N+]([O-])c1ccc(S(=O)(=O)CC(CN2CCCCC2)N2CCCCC2)cc1 (configuration not stated),AC50,[12],4.88 µM (active)
same,AC50,[15],2.17 µM (active)
same,AC50,[16],19.9 µM (active)
CN(Cc1ccc(OC(F)F)cc1)C(=O)c1cccc(S(=O)(=O)N2CCN(Cc3ccccc3)CC2)c1,AC50,[17],57.2 µM (active)
same,IC50,[18],6.19 µM (active)
same,AC50,[19],2.37 µM (active)
same,AC50,[20],2.94 µM (active)
CCOc1ccc(-c2nc(CSCC(=O)N3CCC(C)CC3)c(C)o2)cc1,IC50,[21],30 µM (inactive)
same,IC50,[22],9.87 µM (active)
same,IC50,[23],32.6 µM (inactive)
CC(C)(C)c1ccc(-c2noc(CCC(=O)N3CCCCC3)n2)cc1,IC50,[21],39.7 µM (inactive)
same,IC50,[22],17.4 µM (active)
same,IC50,[23],11.6 µM (active)
COc1ccc(C(=O)NNc2nc3c(OC)cccc3s2)cc1,IC50,[24],> 66 µM (inactive)
O=C(N/N=C/c1cccc(Br)c1)c1ccc(N2CCCC2=O)cc1,IC50,[25],7.56 µM (active)
same,IC50,[26],11.7 µM (active)
same,IC50,[27],7.26 µM (active)
O=[N+]([O-])c1cccc(-c2nnc3ccc(N4CCCCC4)nn23)c1,Ki,[28],0.0316 µM (active)
same,Ki,[29],> 7.94 µM (inactive)
same,Ki,[30],10 µM (active)
same,Ki,[31],0.01 µM (active)
same,Ki,[32],0.00631 µM (active)
same,Ki,[33],0.0126 µM (active)
same,Ki,[34],0.0398 µM (active)
CN(C)c1ccc(/C=N/N2CCN(c3ccccn3)CC2)cc1,AC50,[14],> 35 µM (active)
same,AC50,[16],> 35 µM (active)

# Source: ChEMBL document CHEMBL1201862, “PubChem BioAssay data set” (2004)
